“Also recorded” adds a separate entry of the source.
Experiments:
[1] = target: FimH (Escherichia coli, UniProt P08191); format: binding; conditions: competitive ELISA; for Concentration blocking FimH binding towards oligomannose glycans: RNAseB substrate
Description: Journal of the American Society for Mass Spectrometry, 2009. […] Tested compounds were added to wells following with FimH treatment.
Plates were coated with 100 μl of 10 mg/ml solution of RNAse-B in 100 mM carbonate/bicarbonate buffer pH 9.6. […] 2 h. Then washed three times with 10 mM PBS containing 0.05% Tween-20. […] Wells were washed three times with 10 mM PBS+0.05% Tween-20. 100 μl of anti-body conjugated to horseradish peroxidase (1:5000) was added in buffer and incubated for 1 h at room temperature. Then washed three times with 10 mM PBS+0.05% Tween-20. Added 100 μl of TMB and incubated in dark for 2-5 min. The reaction was stopped with 100 μl/well 1N sulfuric acid. Plate absorbance was analyzed at 450 nm using microplate reader.

[2] = test system: CD-associated E. coli strain AIEC LF82; assay: Hemagglutination inhibition (HAI) with AIEC LF82, guinea pig erythrocytes; format: cell-based, Escherichia coli
Description: AIEC adhesion to the gut occurs through the binding of FimH adhesins to the mannosylated glycans of intestinal cells. This scenario was first mimicked here with the highly mannosylated glycocalyx of guinea pig erythrocytes.
A two-fold dilution series of the antagonists was added to wells containing guinea pig erythrocytes and AIEC LF82 bacteria. The formation of the cross-linked network (hemagglutination) due to the interaction of the E. coli FimH adhesins with the glycocalyx of the erythrocytes was prevented at a certain concentration of inhibitors. The lowest concentration at which hemagglutination is still inhibited is defined as the inhibition titer of the antagonist. HM was included in the assay to obtain a relative inhibitory concentration (rIC) for the antagonists by dividing the inhibitory concentration (IC) of the substance of interest by the value for HM. In fact, rICs are more accurate than rough inhibition titers to compare the potency of antagonists evaluated in different assays.

[3] = test system: AIEC strain LF82 adhesion to T84 intestinal epithelial cells; assay: Adhesion assay on T84 cells with thiazolylaminomannosides (Example 22.3); format: cell-based, Escherichia coli; conditions: for Inhibitory effect on adhesion: 100 nM; for inhibition at 10 µM: Escherichia coli, Epithelial cell, read-out: Inhibition of adhesion
Description: T84 Intestinal Epithelial cells (overexpressing the receptor CEACAM6) were beforehand incubated for 1 h with the synthetic thiazolylaminomannosides 6-20 (examples 3-17) at different concentrations. Each compound was tested four times at concentrations of 0.1, 1, 10 and 100 μM.
The cells were then infected in the presence of inhibitory compounds by the AIEC strain of reference LF82 for 3 hours at a multiplicity of infection of 10 bacteria to a cell. After 3 h of incubation, the monolayer was washed and the number of AIEC bacteria associated with cells was counted. The level of adhesion of AIEC LF82 strain in the presence of inhibitors (residual adhesion) was expressed relatively to the level of adherence in the absence of any treatment (considered 100%) (FIG. 10).

[4] = test system: AIEC LF82 bacteria adhesion to T84 intestinal epithelial cells; assay: Adhesion assay on T84 cells, pre-, co- and post-incubation protocols (Example 21.2); format: cell-based, Escherichia coli; conditions: pre-incubation assay
Description: E. coli strain LF82 was isolated from a chronic ileal lesion of a patient with Crohn's disease (CD). Bacteria were grown routinely in Luria-Bertani (LB) broth overnight at 37° C. Intestinal epithelial cells T84 derived from colonic adenocarcinoma were maintained in an atmosphere containing 5% CO2 at 37° C. in DMEM/F12 (50/50) medium supplemented with 10% (v/v) heat-inactivated fetal calf serum (FCS), 1% L-glutamine, 100 000 U·l^−1 penicillin, 100 mg·l^−1 streptomycin, 25 μg·l^−1 amphotericin B.
T84 were seeded in 48-well plates at a concentration of 1.5×10^5 cells per well and grown for 48 h. AIEC LF82 bacteria were incubated 1 h with each mannoside prior the cell infection (pre-incubation protocol) or they were added simultaneously onto the cells (co-incubation protocol) in complete medium without antibiotics, containing heat inactivated fetal calf serum (FCS). Heptyl-mannose or compound 2 (example 1) were tested at a dose of 100; 10; 1 or 0.1 μM. D-D-mannose was tested at a dose of 10 000; 1 000; 100 or 10 μM and compound 1 (example 2bis) was tested at a concentration of 500; 100; 10 or 1 μM. Cells were infected with AIEC LF82 bacteria at a multiplicity of infection (MOI) of 10 bacteria per cell for 3 h at 37° C. For the post-incubation protocol, mannosides were incubated with cells for 3 h after bacterial infection. A washing step was realized before this post-incubation to eliminate non-adherent bacteria. Monolayers were washed in phosphate-buffered saline (PBS; pH 7.2) and cells were then lysed with 1% Triton X-100 in deionized water. Samples were diluted and plated onto Luria Bertani agar plates to determine the number of colony-forming units (CFU) recovered from the lysed monolayers. Results were expressed as percentages of residual adhesion, considering adhesion level of AIEC LF82 without mannoside treatment as 100%.

[5] = test system: AIEC LF82 bacteria on colonic tissue from transgenic mice expressing human CEACAM6; assay: Ex-vivo adhesion assay on colonic tissue of CEABAC10 mice; parameters: species or system CEABAC10 transgenic mice; conditions: 1 h
Description: E. coli strain LF82 was isolated from a chronic ileal lesion of a patient with Crohn's disease (CD). Bacteria were grown routinely in Luria-Bertani (LB) broth overnight at 37° C.
Adhesion assay of AIEC LF82 bacteria were performed using colonic tissue from transgenic mice expressing the human CEACAM6 protein (C. H. Chan, C. P. Stanners “Novel mouse model for carcinoembryonic antigen-based therapy”, Mol Ther. 2004; 9, 775-785). Briefly, 10 to 12-week-old FVB/N CEABAC10 transgenic mice were anesthetized, euthanized by cervical dislocation and colons were removed. Colons were washed twice in phosphate buffer saline (PBS) and were segmented in 4 independent loops of ≈0.6 cm. A volume of 100 μL of LF82 bacteria at 2×10^6 bacteria/mL in PBS or of a mix of LF82 bacteria+D-mannose (1 μmol and 10 μmol) or compound 13 (0.1 μmol and 0.01 μmol) were injected into the loops. Loops were incubated 1 h at 37° C. in an atmosphere containing 5% of CO2, and then opened and washed 4 times in PBS. Tissues were homogenized, appropriately diluted and plated onto Luria-Bertani agar plates containing ampicillin (100 μg/mL) and erythromycin (20 μg/mL) to select AIEC LF82 bacteria.
Entire colons from CEABAC10 mice were collected and washed two times with PBS. The colon was divided in 4 isolated loops and 100 μL of a bacterial suspension containing […] bacteria/mL with or without inhibitory compounds were injected into the loops. D-mannose was tested at a dose of 1 and 10 μmol and monovalent 13 was tested at a dose of 0.01 and 0.1 μmol. After a 1 h-period of incubation, samples were extensively washed and homogenized to numerate adherent bacteria. Bacterial adhesion was expressed as percentages of residual adhesion (100% corresponds to the adhesion in absence of any compound).

FimH, sequence (P08191 22-300): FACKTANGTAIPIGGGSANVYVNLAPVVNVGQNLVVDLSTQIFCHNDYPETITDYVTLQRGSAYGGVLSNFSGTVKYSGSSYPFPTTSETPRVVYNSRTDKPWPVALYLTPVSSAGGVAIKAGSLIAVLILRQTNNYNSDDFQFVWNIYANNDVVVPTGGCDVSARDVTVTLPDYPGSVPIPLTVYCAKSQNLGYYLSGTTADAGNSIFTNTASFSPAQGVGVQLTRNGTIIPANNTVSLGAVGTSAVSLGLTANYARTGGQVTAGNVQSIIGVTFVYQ

SMILES: O=C(c1ccsc1)c1cnc(N[C@H]2OC(CO)[C@@H](O)[C@H](O)C2O)s1 (mixture of isomers) [Compound 12, 2-(α-D-mannopyranosyl)amino-5-(thiophene-3-carbonyl)thiazole]
- Concentration blocking FimH binding towards oligomannose glycans [1]: 50 nM

SMILES: O=C(c1cccs1)c1cnc(N[C@H]2OC(CO)[C@@H](O)[C@H](O)C2O)s1 (mixture of isomers) [Compound 14, 2-(α-D-mannopyranosyl)amino-5-(thiophene-2-carbonyl)thiazole]
- Concentration blocking FimH binding towards oligomannose glycans [1]: 50 nM

SMILES: O=C(c1cnc(N[C@H]2O[C@H](CO)[C@@H](O)[C@H](O)[C@@H]2O)s1)C(F)(F)F [Compound 7, 2-(α-D-mannopyranosyl)amino-5-trifluoroacetylthiazole]
- Concentration blocking FimH binding towards oligomannose glycans [1]: 50 nM
- Inhibitory potency in HAI (in words) [2]: less potent than HM; also recorded: significantly less potent than 6

SMILES: O=C(c1ccccc1)c1cnc(N[C@H]2O[C@H](CO)[C@@H](O)[C@H](O)[C@@H]2O)s1 [Compound 8, 2-(α-D-mannopyranosyl)amino-5-benzoylthiazole]
- Level of inhibition compared to the HM reference [1]: significantly higher level of inhibition
- Concentration blocking FimH binding towards oligomannose glycans [1]: 5 nM
- Inhibitory effect on adhesion [3]: significant inhibitory effect

SMILES: CC(C)(C)C(=O)c1cnc(N[C@H]2OC(CO)[C@@H](O)C(O)C2O)s1 (stereo partly drawn) [Compound 9, 2-(α-D-mannopyranosyl)amin-5-tert-butylcarbonylthiazole]
- Concentration blocking FimH binding towards oligomannose glycans [1]: 50 nM

SMILES: O=C(c1ccc([N+](=O)[O-])cc1)c1cnc(N[C@H]2O[C@H](CO)[C@@H](O)[C@H](O)[C@@H]2O)s1 [Compound 10, 2-(α-D-mannopyranosyl)amino-5-(4-nitrobenzoyl)thiazole]
- Inhibitory potency in HAI (in words) [2]: less potent than the unsubstituted phenyl analogue 8
- Inhibitory effect on adhesion [3]: significant inhibitory effect
- inhibition at 10 µM [3]: > 90%

SMILES: Cc1ccc(C(=O)c2cnc(N[C@H]3O[C@H](CO)[C@@H](O)[C@H](O)[C@@H]3O)s2)cc1 [Compound 11, 2-(α-D-mannopyranosyl)amino-5-(4-methylbenzoyl)thiazole]
- Concentration blocking FimH binding towards oligomannose glycans [1]: 50 nM

SMILES: O=C(c1cnc(N[C@H]2OC(CO)[C@@H](O)C(O)C2O)s1)C12CC3CC(CC(C3)C1)C2 (stereo partly drawn) [Compound 16, 5-((3r,5r,7r)-adamantane-1-carbonyl)-2-(α-D-mannopyranosyl)aminothiazole]
- Inhibitory potency in HAI (in words) [2]: significant improvement
- Inhibitory effect on adhesion [3]: significant inhibitory effect

SMILES: O=C(c1ccncc1)c1cnc(N[C@H]2O[C@H](CO)[C@@H](O)[C@H](O)[C@@H]2O)s1 [Compound 17, 2-(α-D-mannopyranosyl)amino-5-isonicotinoylthiazole]
- inhibition at 10 µM [3]: > 90%

SMILES: O=C(c1ccc(Br)cc1)c1cnc(N[C@H]2O[C@H](CO)[C@@H](O)[C@H](O)[C@@H]2O)s1 [Compound 19, 2-(α-D-mannopyranosyl)amino-5-(4-bromobenzoyl)thiazole]
- inhibition at 10 µM [3]: > 90%

SMILES: N#Cc1ccc(C(=O)c2cnc(N[C@H]3O[C@H](CO)[C@@H](O)[C@H](O)[C@@H]3O)s2)cc1 [Compound 20, 2-(α-D-mannopyranosyl)amino-5-(4-cyanobenzoyl)thiazole]
- Inhibitory potency in HAI (in words) [2]: less potent than the unsubstituted phenyl analogue 8

SMILES: OC[C@H]1O[C@H](O)[C@@H](O)[C@@H](O)[C@@H]1O [D-mannose, α-D-mannose, reference compound]
- Concentration leading to decreased adhesion levels of at least 50% [4]: 1000 µM
- Bacterial adhesion ([5]; 1 μmol): no decrease
- Bacterial adhesion (residual) ([5]; dose of 10 μmol): 41%
- Residual adhesion ([3]; 1000 μM): 51.6%

— patent US10273313B2, “Multimeric mannosides, a process for preparing the same and their uses as a drug” (CENTRE NATIONAL DE LA RECHERCHE SCIENTIFIQUE, priority 2012, dated 2019)
